Source: patent US9512128B2 (BAYER CROPSCIENCE AG, priority 2012, dated 2016)
Read-outs that look alike come from different tables or passages of the source.

Assay: log P by HPLC on reversed-phase columns (C 18), EEC directive 79/831 Annex V.A8
Assay type: physicochemical
Settings: for logP[a]: method [a]; for logP[b]: method [b]
Description: The log P values were determined according to EEC directive 79/831 Annex V.A8 by HPLC (High Performance Liquid Chromatography) on reversed-phase columns (C 18), using the methods below:
[a] The LC-MS determination in the acidic range is carried out at pH 2.7 with 0.1% aqueous formic acid and acetonitrile (contains 0.1% formic acid) as mobile phases; linear gradient from 10% acetonitrile to 95% acetonitrile.
[b] The LC-MS determination in the neutral range is carried out at pH 7.8 using the mobile phases 0.001 molar aqueous ammonium bicarbonate solution and acetonitrile; linear gradient from 10% acetonitrile to 95% acetonitrile.

[1] = reversed-phase C18 HPLC column, pH 2.7, acidic range, pH 2.7, 0.1% aqueous formic acid / acetonitrile, read-out: log P[a]
[2] = reversed-phase C18 HPLC column, pH 7.8, neutral range, pH 7.8, 0.001 molar aqueous ammonium bicarbonate / acetonitrile, read-out: log P[b]
[3] = acidic range, pH 2.7, 0.1% aqueous formic acid / acetonitrile, read-out: log P[a]
[4] = neutral range, pH 7.8, 0.001 molar aqueous ammonium bicarbonate / acetonitrile, read-out: log P[b]

Structure (SMILES) | chromatographic logP [1] | chromatographic logP [2] | also measured
N#Cc1ccc(-n2cnc3ccsc3c2=O)cc1SCC(F)(F)F [Compound 102] | – | – | logP[a]: 2.37; logP[b]: 2.31
O=c1c2sccc2ncn1-c1ccc(Cl)c(SCC(F)(F)F)c1 [Compound 103] | – | – | logP[a]: 2.90; logP[b]: 2.84
O=c1c2sccc2ncn1-c1ccc(C(F)(F)F)c(SCC(F)(F)F)c1 [Compound 104] | – | – | logP[a]: 3.09; logP[b]: 3.07
O=c1c2sccc2ncn1-c1ccc(C(F)(F)F)c([S+]([O-])CC(F)(F)F)c1 (stereo not shown) [Compound 107] | – | – | logP[a]: 2.44; logP[b]: 2.40
Cc1cc(F)c(-n2cnc3ccsc3c2=O)cc1SCC(F)(F)F [Compound 109] | – | – | logP[a]: 3.50; logP[b]: 3.42
Cc1cc(F)c(-n2cnc3c(Cl)csc3c2=O)cc1SCC(F)(F)F [Compound 110] | – | – | logP[a]: 3.56; logP[b]: 3.41
Cc1cc(F)c(-n2cnc3c(Cl)c(Cl)sc3c2=O)cc1SCC(F)(F)F [Compound 111] | – | – | logP[a]: 4.38; logP[b]: 4.24
Cc1cc(F)c(-n2cnc3c(Cl)c(Cl)sc3c2=O)cc1[S+]([O-])CC(F)(F)F (stereo not shown) [Compound 115] | – | – | logP[a]: 3.20; logP[b]: 3.13
Cc1cc(F)c(NC(=O)C(F)(F)F)cc1SCC(F)(F)F [Compound X-1, 2,2,2-Trifluoro-N-{2-fluoro-4-methyl-5-[(2,2,2-trifluoroethyl)sulphanyl]phenyl}acetamide] | 3.31 | – | –
O=C(Nc1cc(SCC(F)(F)F)c(Cl)cc1F)C(F)(F)F [Compound X-2, N-{4-Chloro-2-fluoro-5-[(2,2,2-trifluoroethyl)sulphanyl]phenyl}-2,2,2-trifluoroacetamide] | 3.34 | 3.14 | –
O=C(Nc1ccc(Cl)c(SCC(F)(F)F)c1)C(F)(F)F [Compound X-3, N-{4-Chloro-3-[(2,2,2-trifluoroethyl)sulphanyl]phenyl}-2,2,2-trifluoroacetamide] | 3.46 | 3.41 | –
Nc1cc(SCC(F)(F)F)c(Cl)cc1F [IVa-2, 4-Chloro-2-fluoro-5-[(2,2,2-trifluoroethyl)sulphanyl]aniline] | 3.02 | 3 | –
Nc1ccc(Cl)c(SCC(F)(F)F)c1 [IVa-3, 4-Chloro-3-[(2,2,2-trifluoroethyl)sulphanyl]aniline] | 2.64 | 2.69 | –
Nc1cc(SCC(F)(F)F)ccc1Cl [IVa-4, 2-Chloro-5-[(2,2,2-trifluoroethyl)sulphanyl]aniline] | 3 | 2.95 | –
Nc1cc(SCC(F)(F)F)ccc1F [IVa-5, 2-Fluoro-5-[(2,2,2-trifluoroethyl)sulphanyl]aniline] | 2.57 | 2.53 | –
Cc1cc(F)c(N)cc1[S+]([O-])CC(F)(F)F (stereo not shown) [IVb-1, 2-Fluoro-4-methyl-5-[(2,2,2-trifluoroethyl)sulphinyl]aniline] | 1.77 | 1.72 | –
Cc1cc(F)c(NC(=O)c2cnn(C)c2[N+](=O)[O-])cc1SCC(F)(F)F [N-{2-Fluoro-4-methyl-5-[(2,2,2-trifluoroethyl)sulphanyl]phenyl}-1-methyl-5-nitro-1H-pyrazole-4-carboxamide] | 3.22 | 3.16 | –
Cc1cc(F)c(B(O)O)cc1SCC(F)(F)F [VIIIa-1, {2-Fluoro-4-methyl-5-[(2,2,2-trifluoroethyl)sulphanyl]phenyl}boronic acid] | 2.34 | 2.41 | –

Structure (SMILES) | chromatographic logP [1] | chromatographic logP [2] | also measured
Cc1ccc(B(O)O)cc1SCC(F)(F)F [VIIIa-7, {4-Methyl-3-[(2,2,2-trifluoroethyl)sulphanyl]phenyl}boronic acid] | 2.3 | 2.24 | –
Cc1cc(F)c(B(O)O)cc1[S+]([O-])CC(F)(F)F (stereo not shown) [VIIIb-1, {2-Fluoro-4-methyl-5-[(2,2,2-trifluoroethyl)sulphinyl]phenyl}boronic acid] | 1.38 | 1.11 | –
Cc1ccc(B(O)O)cc1[S+]([O-])CC(F)(F)F (stereo not shown) [VIIIb-7, {4-Methyl-3-[(2,2,2-trifluoroethyl)sulphinyl]phenyl}boronic acid] | 1.41 | 1.36 | –
Cc1cc(F)c(Br)cc1SCC(F)(F)F [VIIa-1, 1-Bromo-2-fluoro-4-methyl-5-[(2,2,2-trifluoroethyl)sulphanyl]benzene] | 4.3 | 4.34 | –
Cc1cc(F)c(I)cc1SCC(F)(F)F [VIIa-1-I, 1-Fluoro-2-iodo-5-methyl-4-[(2,2,2-trifluoroethyl)sulphanyl]benzene] | 4.44 | 4.44 | –
FC(F)(F)CSc1cc(Br)c(Cl)cc1Cl [VIIa-6, 1-Bromo-2,4-dichloro-5-[(2,2,2-trifluoroethyl)sulphanyl]benzene] | 4.8 | 4.77 | –
Cc1ccc(Br)cc1SCC(F)(F)F [VIIa-7, 5-Bromo-2-methylphenyl-2,2,2-trifluoroethyl sulphide] | 4.29 | 4.26 | –
Cc1ccc(I)cc1SCC(F)(F)F [VIIa-7-I, 4-Iodo-1-methyl-2-[(2,2,2-trifluoroethyl)sulphanyl]benzene] | 4.49 | 4.48 | –
COc1ccc(Br)cc1SCC(F)(F)F [VIIa-8, 4-Bromo-1-methoxy-2-[(2,2,2-trifluoroethyl)sulphanyl]benzene] | 3.69 | 3.81 | –
N#Cc1ccc(Br)cc1SCC(F)(F)F [VIIa-9, 4-Bromo-2-[(2,2,2-trifluoroethyl)sulphanyl]benzonitrile] | 3.21 | 3.16 | –
FC(F)(F)CSc1cc(Br)ccc1C(F)(F)F [VIIa-10, 4-Bromo-2-[(2,2,2-trifluoroethyl)sulphanyl]-1-(trifluoromethyl)benzene] | 4.22 | 4.2 | –
Cc1cc(C)c(SCC(F)(F)F)cc1Br [VIIa-11, 1-Bromo-2,4-dimethyl-5-[(2,2,2-trifluoroethyl)sulphanyl]benzene] | 4.81 | 4.77 | –
Cc1cc(F)c(NC(=O)C(F)(F)F)cc1SSc1cc(NC(=O)C(F)(F)F)c(F)cc1C [XI-1, N,N′-[Disulphanediylbis(6-fluoro-4-methylbenzene-3,1-diyl)]bis(2,2,2-trifluoroacetamide)] | 4.41 | – | –
O=C(Nc1cc(SSc2cc(NC(=O)C(F)(F)F)c(F)cc2Cl)c(Cl)cc1F)C(F)(F)F [XI-2, N,N′-[Disulphanediylbis(4-chloro-6-fluorobenzene-3,1-diyl)]bis(2,2,2-trifluoroacetamide)] | 4.6 | 3.82 | –
Cc1ccc(NC(=O)C(F)(F)F)c(F)c1 [XIII-1, 2,2,2-Trifluoro-N-(2-fluoro-4-methylphenyl)acetamide] | 2.4 | – | –
O=C(Nc1ccc(Cl)cc1F)C(F)(F)F [XIII-2, N-(4-Chloro-2-fluorophenyl)-2,2,2-trifluoroacetamide] | – | – | chromatographic logP [3]: 2.53; chromatographic logP [4]: 2.4
O=[N+]([O-])c1ccc(Cl)c(SSc2cc([N+](=O)[O-])ccc2Cl)c1 [XIX-3, 1,1′-Disulphanediylbis(2-chloro-5-nitrobenzene)] | – | – | chromatographic logP [3]: 5.03; chromatographic logP [4]: 5.01
